What was measured:
Format in all cases: in vivo, pig
sows (PIC) = assay: Sow performance (Example 10); details: for Culled sows, n: reproductive failure: 13 sows; for Wean-to-remate interval / Weaning-to-estrus interval: Subsequent performance; for Farrowing rate (%), subsequent performance: next cycle
Protocol: The trial was conducted at a farm in Poland. In general the housing and management conditions on the chosen workplace were considered representative for the geographical region. The breeding, gestation, and farrowing facilities of the farm were fully enclosed buildings with rooms that were ventilated and heated to maintain a minimum comfort zone temperature for the sows. Testing was performed on sows (primiparous and multiparous) of the same type of crossing (PIC). The trial comprised 52 sows in a system of continuous farrowing. Each group was consist of 13 animals. The trial ran from day 1 of pregnancy to remating in the next cycle. There were two dietary compositions: LP 0-90 d, LK-90 d of gestation-weaning. Feed fed throughout the study was manufactured in the feed mill of the farm. The feed produced was complete feeds according to the standard feeding management procedures on the participating farm. Feed consistency was mash. […] Each group was fed with complete diets for pregnant sows (0-90 d) and for lactation sows (90 d of gestation-weaning) with different inclusion of vitamin E and tested product (see TABLE 43A) and lactation diets (see TABLE 43B) The performance following criteria were monitored during the trial: (i) Sows response criteria (actual parity, farrowing rate, culled sows—number and reasons, wean-to-mating interval, farrowing rate in the next cycle); (ii) litter response criteria (number of piglets, total, alive, stillborn, mummies; weight of piglets and litters; survival). The following biochemical (blood) criteria were monitored during the trial for the sows (mating, farrowing and weaning), piglets 21st day: (i) glutathione peroxidase (GPx) activity; (ii) superoxide dismutase (SOD) activity; (iii) total antioxidant status (TAS); (iv) vitamin E content; (v) vitamin A content.

sows and piglets [1] = assay: Glutathione peroxidase (GPx) activity in blood of sows and piglets (Example 10); details: for Activity of glutathione peroxidase (GPx) in blood of piglets: piglets at 21 days
Description: (§1) The performance following criteria were monitored during the trial: (i) Sows response criteria (actual parity, farrowing rate, culled sows—number and reasons, wean-to-mating interval, farrowing rate in the next cycle); (ii) litter response criteria (number of piglets, total, alive, stillborn, mummies; weight of piglets and litters; survival). The following biochemical (blood) criteria were monitored during the trial for the sows (mating, farrowing and weaning), piglets 21st day: (i) glutathione peroxidase (GPx) activity; (ii) superoxide dismutase (SOD) activity; (iii) total antioxidant status (TAS); (iv) vitamin E content; (v) vitamin A content.
(§2) To determine the oxidative status, the blood samples were collected from sows and piglets into tubes with lithium anticoagulant—received whole blood for analysis. At the same time blood samples were taken for blood clot. They were centrifuged (1500 rpm, 15 Temp. 4° C.) and obtained serum was pipetted into separate tubes.
In studies of oxidative status of sows and piglets were used suitable to each of the indicators, the reagent kits from Sigma-Aldrich. Determination was made in accordance with the descriptions of the rules and procedures specified by the manufacturer.
(§3) The content of the TAS (total antioxidant status) were determined using the Antioxidant assay kit (Cat. No CS0790), the activity of SOD (superoxide dismutase) was determined using SOD determination kit 19160, the activity of GPx (glutathione Peroxide assai Cellular Activity Kit) Cat. No CGP1. The content of vitamins A and E by McMurray and Blanchflower 1979 (Journal of Chromatography 178, 525-531.). TAS
Whole blood samples (blood collection from animals to tubes with lithium anticoagulant) in duplicate (10 pl) was added to […] of buffer (pH 8), mixed (vortex—10′), then added 10 pl of a 70% aqueous solution of tert-butyl Hydroperoxide, mixed (by inversion) and the absorbance was measured immediately in a spectrophotometer at a wavelength of 340 nm. After 1 minute the measurement was repeated. Simultaneously blank samples (reagent) were performed and a calibration curve based on GPx serial dilutions in the range of 20 to 50 U/ml. The decrease in NADPH absorbance (during 1 minute) measured at 340 nm during the oxidation of NADPH to NADP+ is indicative of GPx activity.

sows and piglets [2] = assay: Content of vitamins E and A in serum of sows and piglets, HPLC (Example 10); details: for Vitamin A in serum of piglets / Vitamin E in serum of piglets: piglets at 21 days
Description: as §1, §2, §3
Serum samples (1 ml) was deproteinized with anhydrous ethanol (1 ml), extracted with 5 ml of n-hexane (Vortex 5′), then centrifuged (3000 rpm, 10′, temp. 4° C.). The resulting 4 ml of the supernatant were evaporated to dryness under nitrogen, and then dissolved in 1 ml of 96% ethanol and analyzed by high performance liquid chromatography (HPLC).
The contents of retinol and tocopherol was determined by reversed-phase high performance liquid chromatography (HPLC) with chromatograph SHIMADZU. Nucleosil C18 column is used, the carrier phase was methanol-water (95:5, v: v). The measurement was performed using a UV detector at a wavelength of 326 nm to determine the amount of retinol and a fluorescence detector (excitation wavelength—295 nm, emission wavelength—330 nM) to determine the tocopherol content. The concentration of retinol and tocopherol were calculated on the basis of the peak external standards (Sigma-Aldrich (□)-a-Tocopherol, Retinol Vitamin-A-alcohol).

[3] = Group 2: vitamin E 50/75 mg/kg diet
[4] = Group 3: vitamin E 100/150 mg/kg diet
[5] = Breeding, Group 2: vitamin E 50/75 mg/kg diet
[6] = Breeding, Group 3: vitamin E 100/150 mg/kg diet
[7] = Farrowing, Group 2: vitamin E 50/75 mg/kg diet
[8] = Farrowing, Group 3: vitamin E 100/150 mg/kg diet
[9] = Weaning, Group 2: vitamin E 50/75 mg/kg diet
[10] = Weaning, Group 3: vitamin E 100/150 mg/kg diet
[11] = Group 2: vitamin E 50/75 mg/kg sow diet
[12] = Group 3: vitamin E 100/150 mg/kg sow diet

## Cc1c(C)c2c(c(C)c1O)CCC(C)(CCCC(C)CCCC(C)CCCC(C)C)O2 (racemic) [Vitamin E, DL-α-tocopherol]
Sows (PIC); [3]
  Farrowing rate (%): 84.62%
  Culled sows, n: reproductive failure: 2
  Wean-to-remate interval: 9.89 days
  Weaning-to-estrus interval: 5.09 days
  Farrowing rate (%), subsequent performance: 80.00%
Sows (PIC); [4]
  Farrowing rate (%): 84.62%
  Culled sows, n: reproductive failure: 2
  Wean-to-remate interval: 7.70 days
  Weaning-to-estrus interval: 5.64 days
  Farrowing rate (%), subsequent performance: 90.91%
Sows and piglets [1]; [5]
  Activity of glutathione peroxidase (GPx) in blood of sows: 37.73 U/ml
Sows and piglets [1]; [6]
  Activity of glutathione peroxidase (GPx) in blood of sows: 38.85 U/ml
Sows and piglets [1]; [7]
  Activity of glutathione peroxidase (GPx) in blood of sows: 32.77^C U/ml
Sows and piglets [1]; [8]
  Activity of glutathione peroxidase (GPx) in blood of sows: 37.64^B U/ml
Sows and piglets [1]; [9]
  Activity of glutathione peroxidase (GPx) in blood of sows: 34.78^C U/ml
Sows and piglets [1]; [10]
  Activity of glutathione peroxidase (GPx) in blood of sows: 36.48^B U/ml
Sows and piglets [1]; [11]
  Activity of glutathione peroxidase (GPx) in blood of piglets: 29.12^B U/ml
Sows and piglets [1]; [12]
  Activity of glutathione peroxidase (GPx) in blood of piglets: 29.91^B U/ml
Sows and piglets [2]; [5]
  Content of Vitamin A in the serum of sows: 0.15 µg/mL
  Content of Vitamin E in the serum of sows: 1.09 µg/mL
Sows and piglets [2]; [6]
  Content of Vitamin A in the serum of sows: 0.16 µg/mL
  Content of Vitamin E in the serum of sows: 1.11 µg/mL
Sows and piglets [2]; [7]
  Content of Vitamin A in the serum of sows: 0.11 µg/mL
  Content of Vitamin E in the serum of sows: 0.74 µg/mL
Sows and piglets [2]; [8]
  Content of Vitamin A in the serum of sows: 0.15 µg/mL
  Content of Vitamin E in the serum of sows: 1.16 µg/mL
Sows and piglets [2]; P<0.001
  piglet serum a-tocopherol concentrations, lactation sows fed 150 mg/kg versus 75 mg/kg vitamin E: higher
Sows and piglets [2]; [9]
  Content of Vitamin A in the serum of sows: 0.15 µg/mL
  Content of Vitamin E in the serum of sows: 1.02 µg/mL
Sows and piglets [2]; [10]
  Content of Vitamin A in the serum of sows: 0.15 µg/mL
  Content of Vitamin E in the serum of sows: 1.13 µg/mL
Sows and piglets [2]; gestation and lactation, P<0.001
  sow serum a-tocopherol (vitamin E) concentrations when vitamin E was added to the sow diets: higher
Sows and piglets [2]; [11]
  Vitamin A in serum of piglets: 0.16 µg/mL
  Vitamin E in serum of piglets: 1.41 µg/mL
Sows and piglets [2]; [12]
  Vitamin A in serum of piglets: 0.2 µg/mL
  Vitamin E in serum of piglets: 1.61 µg/mL
